Results published in patent US10246448B2, “4-hydroxy-2-phenyl-1,3-thiazol-5-yl methanone derivatives as TRPM8 antagonists” (DOMPÉ FARMACEUTICI S.P.A., priority 2015, dated 2019).

Experiments:
[1] = Metabolic stability in rat microsomes, Phase I assay; type: in vitro ADME; details: for intrinsic clearance half-life (in words): metabolic stability in rat microsomes; for half-life at 1 μM: pH 7.4, rat liver microsomes 0.5 mg/ml, compound 1 μM, NADP cofactors mixture, 37° C., read-out: Metabolic Stability (t1/2, min) Phase1
Experimental: Compounds 1, 2, 8 and 9 in duplicate were dissolved in DMSO and pre-incubated, at the final concentration of 1 μM, for 10 min at 37° C. in potassium phosphate buffer 50 mM pH 7.4, 3 mM MgCl2, with rat liver microsomes (Xenotech) at the final concentration of 0.5 mg/ml.
After the pre-incubation period, reactions were started by adding the cofactors mixture (NADP, Glc6P, Glc6P-DH in 2% Sodium bicarbonte); samples (50 μl) were taken at time 0, 10, 20, 30 and 60 min added to 150 μl of acetonitrile with Verapamil 0.02 μM as Internal Standard (IS) to stop the reaction. After centrifugation the supernatants were analysed by LC-MS/MS.
A control sample without cofactors was added in order to check the stability of test compounds in the matrix after 60 min. 7-Ethoxycoumarin and propranolol were added as reference standards.

[2] = Metabolic stability in rat microsomes, Phase II assay; type: in vitro ADME; details: pH 7.4; rat liver microsomes 0.5 mg/mL, Alamethicin activated, UDPGA, compound 1 μM, 37° C.; read-out: Metabolic Stability (t1/2, min) Phase2
Experimental: Rat liver microsomes (0.5 mg/mL final conc.) were incubated in ice for 15 min in 50 mM potassium phosphate buffer pH 7.4, 3 mM MgCl2 and activated with Alamethicin 50 μg/mg microsomal protein. Samples were transferred at 37° C. and compounds 1, 2, 8 and 9, dissolved in DMSO, were added in duplicate at the final concentration of 1 μM. After 5 min, reaction is started by adding 25 μl of UDPGA (16.15 mg/ml in 0.2% Sodium Bicarbonate). Samples were taken at time 0, 10, 20, 30 and 60 min added to 150 μl of acetonitrile with Verapamil 0.02 uM as Internal Standard (IS) to stop the reaction. After centrifugation the supernatants were analysed by LC-MS/MS. 7-Hydroxycoumarin was added as reference standard.

human TRPM8 [3] = target: T1, human TRPM8 (Homo sapiens, UniProt Q7Z2W7); assay: In vitro TRPM8 assay: intracellular calcium levels, Ca2+ sensitive fluorescent dye (FLIPR), agonist Icilin or Cooling Agent 10; type: cell-based; parameters: expressed in transfected cells; details: HEK-293 cells stably expressing human TRPM8
Experimental: The TRPM8 antagonistic activity of all 26 compounds was determined by measuring changes in intracellular calcium levels using a Ca^+2 sensitive fluorescent dye. The experiments were performed using HEK-293 cells stably expressing the human TRPM8. Cells were seeded 10000 cells/well in 384 plates coated by Poly-D-Lysine MATRIX black/clear bottom (Thermo Scientific, Waltham, Mass. USA) in complete medium and grown overnight at 37° C., 5% CO2. 24 h after seeding, cell culture media was removed, cells were washed with Tyrode's assay buffer and then loaded with the fluorescent Ca^+2 indicator Fluo-4 NW dye (Molecular Probes, Life Technologies, Paisley, UK) supplemented with water-soluble Probenecid (Molecular Probes). Dye loaded cell plates were incubated for 1 h at room temperature. The compounds or vehicle were added and the kinetic response was monitored by a fluorimetric imaging plate ([…]; Molecular Devices, Sunnyvale, Calif., USA) over a period of five minutes (300 seconds). A second injection 5 minutes later of the reference agonist Cooling Agent 10 or Icilin at EC80 concentration was performed. The signal of the emitted fluorescence was recorded during additional three minutes. Data were analyzed by Spotfire DecisionSite version 9.1.1. The bioactivity exerted by the compounds or vehicle was expressed as a percent inhibition and IC50 values were then calculated.

human TRPM8 [4] = target: T1, human TRPM8; assay: In vitro cold stimulation assay
Experimental: The TRPM8 antagonisticic activity of all 26 compounds was determined in an in vitro cold stimulation assay.
3-4 days after seeding (˜80% confluent cells), the medium was removed and cells were loaded by a solution of Screen Quest™ Fluo-8 NW dye (ABS Bioquest, Sunnyvale, Calif., USA) in the dark. Dye-loaded cell flasks were incubated for 45 minutes at room temperature in the dark and the Fluo-8 NW solution was then removed and cells were seeded in the 96 Assay Plates (MicroAmp™ Optical 96-Well Reaction Plates; Applied Biosystems, Life technologies) at 100,000 cells/'well (20 μl/well). […] All data point determinations were performed in duplicate before a mean value was calculated, including error bars representing the standard error of the mean.

[5] = agonist Cooling Agent 10 at EC80, read-out: Ca2+ (IC50 μM) Cool 10
[6] = agonist Icilin at EC80, read-out: Ca2+ (IC50 μM) Icilin

T1 sequence (Q7Z2W7 whole entry): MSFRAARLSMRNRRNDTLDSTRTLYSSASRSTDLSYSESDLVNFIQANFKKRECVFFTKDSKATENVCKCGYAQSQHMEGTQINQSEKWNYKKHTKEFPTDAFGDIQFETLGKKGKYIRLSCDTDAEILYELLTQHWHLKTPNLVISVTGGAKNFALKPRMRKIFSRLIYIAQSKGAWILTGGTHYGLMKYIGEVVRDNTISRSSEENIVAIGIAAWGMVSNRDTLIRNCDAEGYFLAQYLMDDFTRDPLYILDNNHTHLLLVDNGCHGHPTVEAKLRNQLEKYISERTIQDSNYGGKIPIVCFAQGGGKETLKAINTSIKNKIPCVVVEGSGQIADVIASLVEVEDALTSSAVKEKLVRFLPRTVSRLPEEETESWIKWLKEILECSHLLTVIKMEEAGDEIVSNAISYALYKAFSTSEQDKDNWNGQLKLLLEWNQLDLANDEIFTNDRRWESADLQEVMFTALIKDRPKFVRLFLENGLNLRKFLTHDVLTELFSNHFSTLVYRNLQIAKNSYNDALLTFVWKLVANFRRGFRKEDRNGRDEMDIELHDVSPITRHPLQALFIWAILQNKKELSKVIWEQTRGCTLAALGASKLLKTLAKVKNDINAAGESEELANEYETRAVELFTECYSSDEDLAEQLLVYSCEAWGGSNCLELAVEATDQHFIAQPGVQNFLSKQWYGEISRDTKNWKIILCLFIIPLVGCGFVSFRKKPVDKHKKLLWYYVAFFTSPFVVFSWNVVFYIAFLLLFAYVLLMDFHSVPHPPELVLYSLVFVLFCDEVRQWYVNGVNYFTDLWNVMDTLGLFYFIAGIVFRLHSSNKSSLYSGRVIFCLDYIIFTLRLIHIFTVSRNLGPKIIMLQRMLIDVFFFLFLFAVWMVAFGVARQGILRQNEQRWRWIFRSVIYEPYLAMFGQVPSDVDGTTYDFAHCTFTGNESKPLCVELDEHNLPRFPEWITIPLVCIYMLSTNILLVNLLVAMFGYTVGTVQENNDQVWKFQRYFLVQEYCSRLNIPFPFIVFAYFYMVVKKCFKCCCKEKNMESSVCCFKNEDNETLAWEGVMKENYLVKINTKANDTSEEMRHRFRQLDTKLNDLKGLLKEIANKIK

Row | intrinsic clearance half-life (in words) [1] | half-life at 1 μM [1] [min] | half-life at 1 μM [2] [min] | IC50 (human TRPM8 [3]; [5]) [µM] | IC50 (human TRPM8 [3]; [6]) [µM] | IC50 (human TRPM8 [4]) [nM] | SMILES
1 | highest intrinsic clearance half-life | 185 | 120 |  |  |  | O=C(c1sc(-c2cccc(F)c2)nc1O)N1CCCO1 [Example 1, [2-(3-fluorophenyl)-4-hydroxy-1,3-thiazol-5-yl](1,2-oxazolidin-2-yl)methanone]
2 | highest intrinsic clearance half-life | 97 | 86 | 0.011 | 0.012 | 5.5 | O=C(c1sc(-c2ccccc2O)nc1O)N1CCCO1 [Example 2, [4-hydroxy-2-(2-hydroxyphenyl)-1,3-thiazol-5-yl](1,2-oxazolidin-2-yl)methanone]
3 |  | 78 | 55 |  |  |  | O=C(c1sc(-c2cccc(F)c2)nc1O)N1CCOC1 [Example 3, [2-(3-fluorophenyl)-4-hydroxy-1,3-thiazol-5-yl](1,3-oxazolidin-3-yl)methanone]
4 |  | 64 | 41 | 0.104 | 0.122 | 39 | O=C(c1sc(-c2ccccc2O)nc1O)N1CCOC1 [Example 4, [4-hydroxy-2-(2-hydroxyphenyl)-1,3-thiazol-5-yl](1,3-oxazolidin-3-yl)methanone]
5 |  | 52 | 45 | 0.326 | 0.362 | 124 | O=C(c1sc(-c2cccc(F)c2)nc1O)C1CCCO1 (centres unmarked) [Example 5, [2-(3-fluorophenyl)-4-hydroxy-1,3-thiazol-5-yl](oxolan-2-yl)methanone]
6 |  | 56 | 33 | 0.401 | 0.452 | 230 | O=C(c1sc(-c2ccccc2O)nc1O)C1CCCO1 (centres unmarked) [Example 6, [4-hydroxy-2-(2-hydroxyphenyl)-1,3-thiazol-5-yl](oxolan-2-yl)methanone]
7 |  | 46 | 51 | 1.36 | 1.56 | 1230 | O=C(c1sc(-c2cccc(F)c2)nc1O)N1CCCC1 [Example 7, [2-(3-fluorophenyl)-4-hydroxy-1,3-thiazol-5-yl](pyrrolidin-1-yl)methanone]
8 | highest intrinsic clearance half-life | 102 | 43 |  |  |  | O=C(c1sc(-c2ccccc2O)nc1O)N1CCCCO1 [Example 8, [4-hydroxy-2-(2-hydroxyphenyl)-1,3-thiazol-5-yl](1,2-oxazinan-2-yl)methanone]
9 | highest intrinsic clearance half-life | 98 | 51 | 0.167 | 0.123 | 8 | O=C(c1sc(-c2cccc(F)c2)nc1O)N1CCCCO1 [Example 9, [2-(3-fluorophenyl)-4-hydroxy-1,3-thiazol-5-yl](1,2-oxazinan-2-yl)methanone]
10 |  | 55 | 46 | 0.256 | 0.231 | 102 | O=C(c1sc(-c2cccc(F)c2)nc1O)N1CCCOC1 [Example 10, [2-(3-fluorophenyl)-4-hydroxy-1,3-thiazol-5-yl](1,3-oxazinan-3-yl)methanone]
11 |  | 51 | 50 | 0.281 | 0.256 | 106 | O=C(c1sc(-c2ccccc2O)nc1O)N1CCCOC1 [Example 11, [4-hydroxy-2-(2-hydroxyphenyl)-1,3-thiazol-5-yl](1,3-oxazinan-3-yl)methanone]
12 |  | 54 | 32 | 0.963 | 1.21 | 853 | O=C(c1sc(-c2cccc(F)c2)nc1O)N1CCOCC1 [Example 12, [2-(3-fluorophenyl)-4-hydroxy-1,3-thiazol-5-yl](morpholin-4-yl)methanone]
13 |  | 78 | 36 | 1.12 | 1.22 | 752 | O=C(c1sc(-c2ccccc2O)nc1O)N1CCOCC1 [Example 13, [4-hydroxy-2-(2-hydroxyphenyl)-1,3-thiazol-5-yl](morpholin-4-yl)methanone]
14 |  | 67 | 65 | 1.51 | 1.47 | 985 | O=C(c1sc(-c2cccc(F)c2)nc1O)N1CCCCC1 [Example 14, [2-(3-fluorophenyl)-4-hydroxy-1,3-thiazol-5-yl](piperidin-1-yl)methanone]
15 |  | 90 | 82 | 0.482 | 0.564 | 124 | O=C(c1ccc[nH]1)c1sc(-c2cccc(F)c2)nc1O [Example 17, [2-(3-fluorophenyl)-4-hydroxy-1,3-thiazol-5-yl](1H-pyrrol-2-yl)methanone]
16 |  | 78 | 55 | 1.08 | 1.09 | 1450 | Cn1cccc1C(=O)c1sc(-c2cccc(F)c2)nc1O [Example 18, [2-(3-fluorophenyl)-4-hydroxy-1,3-thiazol-5-yl](1-methyl-1H-pyrrol-2-yl)methanone]
17 |  | 42 | 21 | 1.17 | 1.15 | 1780 | O=C(c1ccco1)c1sc(-c2cccc(F)c2)nc1O [Example 19, [2-(3-fluorophenyl)-4-hydroxy-1,3-thiazol-5-yl](furan-2-yl)methanone]
18 |  | 68 | 59 | 0.96 | 1.11 | 1380 | O=C(c1cccs1)c1sc(-c2cccc(F)c2)nc1O [Example 20, [2-(3-fluorophenyl)-4-hydroxy-1,3-thiazol-5-yl](thiophen-2-yl)methanone]
19 |  | 32 | 35 | 0.651 | 0.745 | 657 | O=C(c1sc(-c2cccc(F)c2)nc1O)n1cccc1 [Example 21, [2-(3-fluorophenyl)-4-hydroxy-1,3-thiazol-5-yl](1H-pyrrol-1-yl)methanone]
20 |  | 52 | 55 | 0.523 | 0.54 | 478 | O=C(c1ccccn1)c1sc(-c2cccc(F)c2)nc1O [Example 22, [2-(3-fluorophenyl)-4-hydroxy-1,3-thiazol-5-yl](pyridin-2-yl)methanone]
21 |  | 52 | 51 | 0.621 | 0.695 | 578 | O=C(c1cccnc1)c1sc(-c2cccc(F)c2)nc1O [Example 23, [2-(3-fluorophenyl)-4-hydroxy-1,3-thiazol-5-yl](pyridin-3-yl)methanone]

Row | SMILES | intrinsic clearance half-life (in words) [1] | half-life at 1 μM [1] [min] | half-life at 1 μM [2] [min] | IC50 (human TRPM8 [3]; [5]) [µM] | IC50 (human TRPM8 [3]; [6]) [µM] | IC50 (human TRPM8 [4]) [nM]
22 | O=C(c1sc(-c2cccc(F)c2)nc1O)C1CCCN1 (centres unmarked) [Example 15, [2-(3-fluorophenyl)-4-hydroxy-1,3-thiazol-5-yl](pyrrolidin-2-yl)methanone] |  | 65 | 54 | 1.56 | 1.23 | 1310
23 | CN1CCCC1C(=O)c1sc(-c2cccc(F)c2)nc1O (centres unmarked) [Example 16, [2-(3-fluorophenyl)-4-hydroxy-1,3-thiazol-5-yl](1-methylpyrrolidin-2-yl)methanone] |  | 32 | 34 | 1.34 | 1.36 | 1010
